Series [1] deals with human 4R0N tau in HeLaC3 cells. As to the kind of experiment: Tau levels in HeLaC3 cells by Western blot. In kind it is cell-based. Here is the method:
To determine whether YM-08 might also accelerated tau degradation, HeLaC3 cells, which stably over-express human 4R0N tau, were treated with compound. After 24 hours, the levels of phosphorylated (p396/404) tau and total tau were measured by Western blot. […] This cellular activity is not as dramatic as that of MKT-077, which reduced tau levels by >80% at 30 μM (FIG. 4D); however, reducing tau by only about 50% is predicted to provide benefits in some AD models.
On the technique in general: Immunoblotting shows a protein as a band on a membrane.

Series [2] addresses prokaryotic Hsp70 (DnaK) binding to denatured luciferase (Escherichia coli, UniProt P0A6Y8). As to the kind of experiment: Luciferase binding assay. In kind it is biochemical. The following applies: 50 μM. Here is the method: Next, the effect of chaperone functions by binding of YM-08 to Hsp70 was investigated. […] This profile is shared with other allosteric Hsp70 inhibitors. As another test of chaperone function, the effects of the compounds on the binding of Hsp70 to a misfolded protein were measured. In previous work, MKT-077 stabilized the interaction between prokaryotic Hsp70 (DnaK) and denatured luciferase. Briefly, this assay involves immobilizing unfolded luciferase in microtiter plates and measuring binding to DnaK. […] To explore whether YM-08 might also enhance binding of Hsp70 to a more physiologically relevant substrate, binding of tau to immobilized human Hsc70 was measured.
Binding of prokaryotic Hsp70 (DnaK) to denatured luciferase was measured as previously described, in e.g., Miyata, et al., J. Biomol. Screen, 15:1211-1219 (2010). Briefly, firefly luciferase (0.2 mg/mL) was proteolyzed with trypsin and immobilized in 96-well microtiter plates. After washing, the binding of luciferase to DnaK (500 nM) was measured using an anti-DnaK antibody and HRP secondary antibody. A similar strategy was used to monitor binding of human Hsc70 to tau, as previously described in Thompson, et al., ACS Chem. Biol., 7:1677-1686 (2012).

The nature of series [3]: Initial pharmacokinetics and biodistribution in CD1 mice. In kind it is in vivo, mouse. The following applies: i.v., YM-01 20 mg/kg saline, YM-08 10 mg/kg 10% DMSO/saline. Here is the method:
(A) Initial pharmacokinetics and biodistribution of YM-01 and YM-08. Compounds were suspended in buffered saline (YM-01) or 10% DMSO/saline (YM-08) and injected at 20 and 10 mg/kg, respectively. YM-08 was not soluble in saline or 10% DMSO/saline at 20 mg/kg. The levels of YM-08 in the brain at 1 hr after injection could not be accurately determined because its value was outside the calibration curve. […] Results are average from data acquired from three female mice. (C) YM-08 maintains a B/P ratio of nearly 0.25 for 18 hrs.
The initial pharmacokinetics (PK) of YM-01 and YM-08 were tested in CD1 mice. […] After a single 6.6 mg/kg dose delivered i.v., the peak brain concentration of YM-08 was 4 μg/g (FIG. 7B) and the ratio in the brain:plasma (B/P) ratio was approximately 0.25 for 18 hrs (FIG. 7C). […] It is not yet clear how much tau levels need to be reduced to achieve therapeutic effects in disease models, but the area-under-the-curve (AUCinf) for YM-08 in the brain was 0.26 μg·hr/g and the AUCinf in plasma was 13.6 μg·hr/mL.

The target of another series is T1, human Hsc70 (HSPA8) (Homo sapiens, UniProt P11142).
T1 construct: made in house
Description: ELISA competitive binding assay (biotinylated MKT-077 displacement). The following applies: competitive ELISA, biotin labeled MKT-077 1 μM. Here is the method:
Binding of MKT-077 analogs to immobilized Hsp70 was evaluated using a competitive ELISA. In this established assay, a biotinylated version of MKT-077 is bound to immobilized human Hsc70 (HSPA8) and potential competitors are tested for their ability to block the interaction.
A sample of Hsc70 (50 μL; 0.06 mg/mL) was immobilized in clear flat-bottom 96-well plate in MES buffer (50 mM 2-(N-morpholino)ethanesulfonic acid, pH 5.2) at 37° C. overnight. After discarding the excess protein solution, each well was washed three times with 150 μL TBS-T buffer (25 mM Tris, 140 mM NaCl, 2.7 mM KCl, 0.01% Tween-20, pH 7.4). Then, 1 μL of compound (1% DMSO) was diluted into 24 μL of binding buffer (100 mM Tris, 20 mM KCl, 6 mM MgCl2, 0.01% Triton-X100) and incubated at room temperature for 30 min. Biotin labeled MKT-077 (final concentration 1 μM; 25 μL) was subsequently added into each well and the mixture was incubated at room temperature for another 3 hrs. The wells were washed with 150 μL TBS-T buffer three times prior to blocking with 100 μL 3% bovine serum albumin (BSA) in TBS-T buffer for 5 min at room temperature. After the removal of the BSA solution, 50 μL of HRP-streptavidin (Pierce Biotechnology, 1:50000 TBS-T dilution) solution was added and the plates were incubated at room temperature for 1 hr. The HRP-streptavidin solution was removed and wells were washed three times with 150 μL TBS-T. […] substrate (Cell Signaling Technology 100 μL) was added into each well and incubated at room temperature until a visible blue color was shown in wells (about 20 min). 1 M HCl stop solution was then added into each well to yield a yellow solution and the absorbance at 450 nm was recorded on SpectraMax M5 (Molecular Devices).

The next series concerns the target T2, Hsp72 (HSPA1) (Homo sapiens, UniProt P0DMV8).
T2 construct: Biotinylated human Hsc70NBD or full length Hsp72 were first immobilized; made in house
As to the kind of experiment: Biolayer interferometry (Octet Red), Hsp72. In kind it is binding. The following applies: immobilized full length Hsp72. Here is the method:
Binding of MKT-077 analogs to immobilized Hsp70 was evaluated using a competitive ELISA. In this established assay, a biotinylated version of MKT-077 is bound to immobilized human Hsc70 (HSPA8) and potential competitors are tested for their ability to block the interaction. […] As further controls, the truncated compounds YM-02, YM-03, YM-04 and YM-07 were tested.
Biotinylated human Hsc70NBD or full length Hsp72 were first immobilized on super streptavidin biosensors (ForteBio, 18-5057) as follows: biosensors were soaked with MG buffer (100 mM Tris base, 20 mM KCl, 6 mM MgCl2, 0.01% Triton X-100, pH 7.4) for 10 min before moving them to wells either containing 200 μL […] biotinylated proteins or […] biocytin for 60 min. The free streptavidin sites were subsequently quenched with […] biocytin for 10 min. The biosensors were washed with MG buffer for 5 min prior to beginning the binding experiments. The association and disassociation steps were carried out in MG buffer with a constant 10% DMSO concentration. All steps were performed at room temperature and with 1000 rpm rotary shaking. […] The apparent affinities of YM-08 for Hsc70NBD and Hsp72 were calculated from both equilibrium measurements and global fits of the kon and koff values, yielding similar values.
On the technique in general: Biolayer interferometry detects binding as a change in optical thickness at a sensor tip.

Chain of prokaryotic Hsp70 (DnaK) binding to denatured luciferase (P0A6Y8 whole entry): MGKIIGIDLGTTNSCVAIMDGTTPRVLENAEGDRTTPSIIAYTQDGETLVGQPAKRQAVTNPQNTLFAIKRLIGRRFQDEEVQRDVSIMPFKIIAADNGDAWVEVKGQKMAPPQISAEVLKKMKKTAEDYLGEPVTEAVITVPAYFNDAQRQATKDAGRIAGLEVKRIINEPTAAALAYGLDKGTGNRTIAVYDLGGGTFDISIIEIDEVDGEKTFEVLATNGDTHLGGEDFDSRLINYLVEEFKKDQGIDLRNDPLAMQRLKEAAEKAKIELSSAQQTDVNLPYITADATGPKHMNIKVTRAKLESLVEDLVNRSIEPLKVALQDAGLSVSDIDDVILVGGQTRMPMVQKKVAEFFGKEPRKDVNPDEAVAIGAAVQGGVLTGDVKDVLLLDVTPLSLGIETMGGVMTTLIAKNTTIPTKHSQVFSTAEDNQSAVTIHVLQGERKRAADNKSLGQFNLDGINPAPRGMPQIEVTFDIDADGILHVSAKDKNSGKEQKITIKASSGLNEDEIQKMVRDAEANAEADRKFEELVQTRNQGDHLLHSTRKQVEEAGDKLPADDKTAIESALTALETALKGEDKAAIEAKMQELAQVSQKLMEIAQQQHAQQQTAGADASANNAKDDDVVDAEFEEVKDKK
T2 sequence (P0DMV8 whole entry): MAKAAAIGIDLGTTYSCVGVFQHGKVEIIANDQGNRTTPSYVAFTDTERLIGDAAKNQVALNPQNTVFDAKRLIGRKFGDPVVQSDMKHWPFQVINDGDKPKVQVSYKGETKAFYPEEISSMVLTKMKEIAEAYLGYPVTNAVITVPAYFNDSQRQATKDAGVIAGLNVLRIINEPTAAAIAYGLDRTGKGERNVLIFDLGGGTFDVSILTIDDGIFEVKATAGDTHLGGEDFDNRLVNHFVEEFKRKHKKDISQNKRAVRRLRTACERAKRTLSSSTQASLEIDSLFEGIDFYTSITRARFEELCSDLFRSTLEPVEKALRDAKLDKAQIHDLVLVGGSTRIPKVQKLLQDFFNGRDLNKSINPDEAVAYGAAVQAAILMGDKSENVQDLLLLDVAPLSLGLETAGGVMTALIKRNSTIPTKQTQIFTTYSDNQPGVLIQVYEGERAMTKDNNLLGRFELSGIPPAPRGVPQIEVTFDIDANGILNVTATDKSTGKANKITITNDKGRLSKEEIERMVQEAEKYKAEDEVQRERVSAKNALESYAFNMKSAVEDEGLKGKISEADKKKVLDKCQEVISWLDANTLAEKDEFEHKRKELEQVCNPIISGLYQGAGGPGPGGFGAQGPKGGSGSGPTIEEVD
T1 sequence (P11142 whole entry): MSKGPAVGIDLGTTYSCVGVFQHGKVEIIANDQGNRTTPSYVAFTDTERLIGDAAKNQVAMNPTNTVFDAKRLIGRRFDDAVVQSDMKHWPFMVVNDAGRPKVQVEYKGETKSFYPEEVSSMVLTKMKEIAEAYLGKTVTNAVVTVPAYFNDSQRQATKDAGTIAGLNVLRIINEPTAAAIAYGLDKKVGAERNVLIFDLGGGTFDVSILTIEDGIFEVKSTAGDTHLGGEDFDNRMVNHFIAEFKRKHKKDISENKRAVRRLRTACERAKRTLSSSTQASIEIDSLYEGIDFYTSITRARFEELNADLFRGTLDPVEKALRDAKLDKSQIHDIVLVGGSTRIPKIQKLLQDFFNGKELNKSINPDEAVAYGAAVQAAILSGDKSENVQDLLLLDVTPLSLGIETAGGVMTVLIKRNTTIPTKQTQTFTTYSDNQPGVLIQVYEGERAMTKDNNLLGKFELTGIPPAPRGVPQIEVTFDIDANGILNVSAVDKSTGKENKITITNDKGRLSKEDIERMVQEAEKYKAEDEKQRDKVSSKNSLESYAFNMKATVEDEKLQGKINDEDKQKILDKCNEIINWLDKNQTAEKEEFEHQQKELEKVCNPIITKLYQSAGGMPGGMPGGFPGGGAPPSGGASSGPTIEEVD

With `CCn1c(=O)/c(=C2\Sc3ccccc3N2C)s/c1=C\c1ccccn1` [YM-08, (2Z,5E)-3-ethyl-5-(3-methylbenzo[d]thiazol-2(3H)-ylidene)-2-(pyridin-2-ylmethylene)thiazolidin-4-one], the “anti-tau activity in cells” value in series [1] was “reduced phospho (p396/404) and total tau”. Further, in series [1] (30 μM, 24 hours), the “decrease of pS396/404 tau level” value is “about 40%” and the “decrease of total tau level” value is “about 60%”. The “enhancement of DnaK binding to denatured luciferase” value in series [2] was “about 30%”. In series [3] (0.16 and 1 hrs), the kidney distribution entry is “reduced retention in the kidney”. For the same molecule, the brain penetration entry in series [3] (0.16 hrs) is given as “abundant in the brain”. Besides, the IC50 on human Hsc70 (HSPA8) came to 0.61 ± 0.05 µM. This molecule had a Kd on Hsp72 (HSPA1) of around 2 µM.

Usually IC50 stands for the midpoint of a concentration-inhibition curve. A higher IC50 goes with lower potency. In general, Kd refers to the concentration at which binding is half-saturated.

For the origin of these results see patent publication US9808448B2, “Pharmaceutical compounds and use of same in cancer and tauopathies” (THE REGENTS OF THE UNIVERSITY OF MICHIGAN, priority 2013, dated 2017).
